Experimental data published in the NIST ThermoML archive (doi:10.1007/s10765-014-1617-1).
Numbers after ± are expanded uncertainties.

Tests used:
[1] = 101.33 kPa, Liquid; for thermal conductivity: Parallel plate method; for mass density: Vibrating tube method
[2] = refractive index (Na D-line) (dimensionless); details: 101.33 kPa, Liquid, Standard Abbe refractometry

| Compound | thermal conductivity ([1]; 283.15 K) [W/m/K] | mass density ([1]; 283.15 K) [kg/m3] | mass density ([1]; 288.15 K) [kg/m3] | thermal conductivity ([1]; 293.15 K) [W/m/K] | mass density ([1]; 293.15 K) [kg/m3] | mass density ([1]; 298.15 K) [kg/m3] | thermal conductivity ([1]; 303.15 K) [W/m/K] | mass density ([1]; 303.15 K) [kg/m3] | mass density ([1]; 308.15 K) [kg/m3] | thermal conductivity ([1]; 313.15 K) [W/m/K] | mass density ([1]; 313.15 K) [kg/m3] | mass density ([1]; 318.15 K) [kg/m3] | thermal conductivity ([1]; 323.15 K) [W/m/K] | mass density ([1]; 323.15 K) [kg/m3] | mass density ([1]; 328.15 K) [kg/m3] | thermal conductivity ([1]; 333.15 K) [W/m/K] | mass density ([1]; 333.15 K) [kg/m3] | mass density ([1]; 338.15 K) [kg/m3] | thermal conductivity ([1]; 343.15 K) [W/m/K] | thermal conductivity ([1]; 353.15 K) [W/m/K] | further results |
| --- | --- | --- | --- | --- | --- | --- | --- | --- | --- | --- | --- | --- | --- | --- | --- | --- | --- | --- | --- | --- | --- |
| CCCCn1cc[n+](C)c1.N#C[B-](C#N)(C#N)C#N [1-butyl-3-methyl-1H-imidazolium tetracyanoborate] | 0.178 ± 0.006 | 1021.17 ± 0.3 | 1017.37 ± 0.3 | 0.1791 ± 0.006 | 1013.59 ± 0.3 | 1009.83 ± 0.3 | 0.1756 ± 0.0059 | 1006.09 ± 0.29 | 1002.37 ± 0.29 | 0.1737 ± 0.0058 | 998.67 ± 0.29 | 995 ± 0.29 | 0.1732 ± 0.0058 | 991.34 ± 0.29 | 987.71 ± 0.29 | 0.1693 ± 0.0057 | 984.09 ± 0.29 | 980.5 ± 0.29 | 0.1664 ± 0.0056 | 0.1632 ± 0.0055 | mass density ([1]; 343.15 K): 976.92 ± 0.29 kg/m3; mass density ([1]; 348.15 K): 973.37 ± 0.29 kg/m3; mass density ([1]; 353.15 K): 969.82 ± 0.29 kg/m3; mass density ([1]; 358.15 K): 966.3 ± 0.29 kg/m3; mass density ([1]; 363.15 K): 962.8 ± 0.28 kg/m3; refractive index ([2]; 283.15 K): 1.4561 ± 0.0006; refractive index ([2]; 293.15 K): 1.4533 ± 0.0006; refractive index ([2]; 303.15 K): 1.45 ± 0.0006; refractive index ([2]; 313.15 K): 1.4473 ± 0.0006 |
| CCCCCCCCCCn1cc[n+](C)c1.N#C[B-](C#N)(C#N)C#N [1-decyl-3-methyl-1H-imidazolium tetracyanoborate] | 0.1665 ± 0.0056 | 972.81 ± 0.29 | 969.36 ± 0.29 | 0.1673 ± 0.0056 | 965.94 ± 0.28 | 962.51 ± 0.28 | 0.1667 ± 0.0056 | 959.09 ± 0.28 | 955.68 ± 0.28 | 0.1646 ± 0.0055 | 952.29 ± 0.28 | 948.91 ± 0.28 | 0.164 ± 0.0055 | 945.54 ± 0.28 | 942.19 ± 0.28 | 0.1613 ± 0.0054 | 938.85 ± 0.28 | 935.53 ± 0.28 | 0.16 ± 0.0054 | 0.1586 ± 0.0053 | mass density ([1]; 343.15 K): 932.22 ± 0.28 kg/m3; mass density ([1]; 348.15 K): 928.94 ± 0.28 kg/m3; mass density ([1]; 353.15 K): 925.65 ± 0.28 kg/m3; mass density ([1]; 358.15 K): 922.39 ± 0.28 kg/m3; mass density ([1]; 363.15 K): 919.14 ± 0.28 kg/m3; refractive index ([2]; 283.15 K): 1.4612 ± 0.0006; refractive index ([2]; 293.15 K): 1.4584 ± 0.0006; refractive index ([2]; 303.15 K): 1.4552 ± 0.0006; refractive index ([2]; 313.15 K): 1.4522 ± 0.0006 |
| CCn1cc[n+](C)c1.N#C[C-](C#N)C#N [1-ethyl-3-methyl-1H-imidazolium tricyanomethanide] | 0.1966 ± 0.0066 | 1091.96 ± 1 | 1088.37 ± 1 | 0.1958 ± 0.0066 | 1084.8 ± 1 | 1081.25 ± 1 | 0.1955 ± 0.0066 | 1077.71 ± 1 | 1074.19 ± 0.99 | 0.1928 ± 0.0065 | 1070.69 ± 0.98 | 1067.21 ± 0.98 | 0.1917 ± 0.0064 | 1063.74 ± 0.97 | 1060.29 ± 0.96 | 0.1896 ± 0.0064 | 1056.86 ± 0.95 | 1053.44 ± 0.95 | 0.1883 ± 0.0063 | 0.1874 ± 0.0063 | mass density ([1]; 343.15 K): 1050.04 ± 0.94 kg/m3; mass density ([1]; 348.15 K): 1046.66 ± 0.93 kg/m3; mass density ([1]; 353.15 K): 1043.28 ± 0.93 kg/m3; mass density ([1]; 358.15 K): 1039.93 ± 0.92 kg/m3; mass density ([1]; 363.15 K): 1036.58 ± 0.91 kg/m3; refractive index ([2]; 283.15 K): 1.516 ± 0.0007; refractive index ([2]; 293.15 K): 1.5131 ± 0.0007; refractive index ([2]; 303.15 K): 1.5101 ± 0.0007; refractive index ([2]; 313.15 K): 1.5071 ± 0.0007 |
| CCCCCCn1cc[n+](C)c1.N#C[B-](C#N)(C#N)C#N [1-hexyl-3-methylimidazolium tetracyanoborate] | 0.1762 ± 0.0059 | – | – | 0.1752 ± 0.0059 | – | – | 0.1741 ± 0.0058 | – | – | 0.1714 ± 0.0057 | – | – | 0.1722 ± 0.0058 | – | – | 0.1697 ± 0.0057 | – | – | 0.1677 ± 0.0056 | 0.1656 ± 0.0056 | – |
| CCCCCCCCn1cc[n+](C)c1.N#C[B-](C#N)(C#N)C#N [1-methyl-3-octylimidazolium tetracyanoborate] | 0.1703 ± 0.0057 | 985.65 ± 0.29 | 982.14 ± 0.29 | 0.1694 ± 0.0057 | 978.62 ± 0.29 | 975.1 ± 0.29 | 0.1682 ± 0.0056 | 971.6 ± 0.29 | 968.12 ± 0.29 | 0.1644 ± 0.0055 | 964.65 ± 0.28 | 961.2 ± 0.28 | 0.1586 ± 0.0053 | 957.76 ± 0.28 | 954.34 ± 0.28 | 0.1573 ± 0.0053 | 950.94 ± 0.28 | 947.55 ± 0.28 | 0.1543 ± 0.0052 | 0.1513 ± 0.0051 | mass density ([1]; 343.15 K): 944.17 ± 0.28 kg/m3; mass density ([1]; 348.15 K): 940.82 ± 0.28 kg/m3; mass density ([1]; 353.15 K): 937.45 ± 0.28 kg/m3; mass density ([1]; 358.15 K): 934.15 ± 0.28 kg/m3; mass density ([1]; 363.15 K): 930.84 ± 0.28 kg/m3; refractive index ([2]; 283.15 K): 1.4603 ± 0.0006; refractive index ([2]; 293.15 K): 1.457 ± 0.0006; refractive index ([2]; 303.15 K): 1.4541 ± 0.0006; refractive index ([2]; 313.15 K): 1.4509 ± 0.0006 |
| CCCCCCCCn1cc[n+](C)c1.N#CC(=C=[N-])C#N [1-methyl-3-octylimidazolium tricyanomethanide] | 0.1717 ± 0.0058 | 1010.18 ± 0.86 | 1006.97 ± 0.85 | 0.1689 ± 0.0057 | 1003.75 ± 0.85 | 1000.54 ± 0.84 | 0.1675 ± 0.0057 | 997.34 ± 0.83 | 994.15 ± 0.83 | 0.1685 ± 0.0057 | 990.97 ± 0.83 | 987.8 ± 0.82 | 0.1678 ± 0.0057 | 984.65 ± 0.82 | 981.5 ± 0.82 | 0.1655 ± 0.0056 | 978.37 ± 0.81 | 975.25 ± 0.81 | 0.1642 ± 0.0056 | 0.1639 ± 0.0056 | mass density ([1]; 343.15 K): 972.14 ± 0.8 kg/m3; mass density ([1]; 348.15 K): 969.05 ± 0.8 kg/m3; mass density ([1]; 353.15 K): 965.97 ± 0.8 kg/m3; mass density ([1]; 358.15 K): 962.89 ± 0.79 kg/m3; mass density ([1]; 363.15 K): 959.82 ± 0.79 kg/m3; refractive index ([2]; 283.15 K): 1.5048 ± 0.0007; refractive index ([2]; 293.15 K): 1.5021 ± 0.0007; refractive index ([2]; 303.15 K): 1.4993 ± 0.0007; refractive index ([2]; 313.15 K): 1.4964 ± 0.0007 |
| CCCCCCCCCC[n+]1ccn(C)c1.N#C[C-](C#N)C#N [3-decyl-1-methylimidazolium tricyanomethanide] | 0.168 ± 0.0057 | 992.5 ± 0.83 | 989.38 ± 0.82 | 0.1694 ± 0.0057 | 986.25 ± 0.82 | 983.11 ± 0.82 | 0.1674 ± 0.0057 | 979.98 ± 0.81 | 976.85 ± 0.81 | 0.1676 ± 0.0057 | 973.73 ± 0.81 | 970.63 ± 0.8 | 0.1673 ± 0.0057 | 967.53 ± 0.8 | 964.44 ± 0.8 | 0.1646 ± 0.0056 | 961.37 ± 0.79 | 958.31 ± 0.79 | 0.162 ± 0.0055 | 0.1593 ± 0.0054 | mass density ([1]; 343.15 K): 955.24 ± 0.79 kg/m3; mass density ([1]; 348.15 K): 952.2 ± 0.78 kg/m3; mass density ([1]; 353.15 K): 949.17 ± 0.78 kg/m3; mass density ([1]; 358.15 K): 946.15 ± 0.77 kg/m3; mass density ([1]; 363.15 K): 943.13 ± 0.77 kg/m3; refractive index ([2]; 283.15 K): 1.5008 ± 0.0007; refractive index ([2]; 293.15 K): 1.4981 ± 0.0007; refractive index ([2]; 303.15 K): 1.495 ± 0.0007; refractive index ([2]; 313.15 K): 1.4918 ± 0.0007 |
| CCCCCC[n+]1ccn(C)c1.N#C[C-](C#N)C#N [3-hexyl-1-methylimidazolium tricyanomethanide] | 0.1817 ± 0.0061 | 1030.55 ± 0.9 | 1027.22 ± 0.89 | 0.1815 ± 0.0061 | 1023.92 ± 0.89 | 1020.62 ± 0.88 | 0.1831 ± 0.0062 | 1017.35 ± 0.87 | 1014.08 ± 0.87 | 0.1817 ± 0.0061 | 1010.83 ± 0.86 | 1007.58 ± 0.85 | 0.181 ± 0.0061 | 1004.35 ± 0.85 | 1001.14 ± 0.84 | 0.1792 ± 0.006 | 997.93 ± 0.84 | 994.74 ± 0.83 | 0.1774 ± 0.006 | 0.1762 ± 0.0059 | mass density ([1]; 343.15 K): 991.57 ± 0.83 kg/m3; mass density ([1]; 348.15 K): 988.4 ± 0.82 kg/m3; mass density ([1]; 353.15 K): 985.24 ± 0.82 kg/m3; mass density ([1]; 358.15 K): 982.11 ± 0.82 kg/m3; mass density ([1]; 363.15 K): 978.98 ± 0.81 kg/m3; refractive index ([2]; 283.15 K): 1.5084 ± 0.0007; refractive index ([2]; 293.15 K): 1.5055 ± 0.0007; refractive index ([2]; 303.15 K): 1.5026 ± 0.0007; refractive index ([2]; 313.15 K): 1.4994 ± 0.0007 |
